Laboratory results reported in ChEMBL document CHEMBL1130281, “Structure-based design of a new bisintercalating anthracycline antibiotic” (1997).

Legend:
[1] = tested on: MCF7-VP; experiment: In vitro cytotoxicity against multi drug resistant human breast carcinoma (MCF-7/VP-16) cell line; format: functional; details: read-out: ID50 (the source's name)
[2] = RI is the ratio of cytotoxicity against MCF-7/VP-16 cell line to that of MCF-7 cell line; format: functional, MCF7
[3] = tested on: MCF7; experiment: In vitro cytotoxicity against human breast carcinoma cell line (MCF-7); format: functional; details: read-out: ID50 (the source's name)

Structure (SMILES) | IC50 [1] [µM] | RI [2] | IC50 [3] [µM]
COc1cccc2c1C(=O)c1c(O)c3c(c(O)c1C2=O)C[C@@](O)(C(C)=O)C[C@@H]3OC1CC(NCc2ccc(CNC3CC(O[C@H]4C[C@](O)(C(C)=O)Cc5c(O)c6c(c(O)c54)C(=O)c4c(OC)cccc4C6=O)OC(C)C3O)cc2)C(O)C(C)O1.Cl.Cl (some centres undefined) [BISANTHRACYCLINE (WP631)] | 2.5 | 0.5 | 4.8
COc1cccc2c1C(=O)c1c(O)c3c(c(O)c1C2=O)C[C@@](O)(C(=O)CO)C[C@@H]3O[C@H]1C[C@H](N)[C@H](O)[C@H](C)O1 [DOXORUBICIN] | 14.2 | – | –
